Measurements from patent publication US20260201008A1, “SECRETIN-DERIVED GLP1R SELECTIVE AGONISTS” (GUBRA A/S, priority 2023, published 2026).
Read-outs that look alike come from different tables or passages of the source. Numbered stars: 1 amine (or outer) side, 2 acyl side, 3 side chain; on linkers, the order of the positions; unused ones are H or OH. Square brackets hold non-standard residues; d marks the D form. Side chains are listed from the residue outwards. Peptide text beside a SMILES is read from it. * marks the point of attachment. C20 diacid = O=C(O)CCCCCCCCCCCCCCCCCCC(=O)*; γGlu = O=C(O)[C@H](CCC(=O)[*:2])N[*:1]; AEEA = NCCOCCOCC(=O)O; Aib = CC(C)(N)C(=O)O

How the values were obtained:
GLP1R = GLP1R (Homo sapiens, UniProt P43220); experiment: hGLP1R potency, cAMP accumulation in CHO-K1 cells stably overexpressing hGLP1R; type: cell-based; parameters: host or cells: CHO-K1; conditions: for EC50: cAMP accumulation, CHO-K1 cells overexpressing hGLP1R; for SCTR EC50/GLP1R EC50 ratio: selectivity for hGLP1R over hSCTR, cAMP accumulation in CHO-K1 cells; for Selectivity: SCTR EC50/GLP1R EC50 ratio
Chain of GLP1R (P43220 24-463): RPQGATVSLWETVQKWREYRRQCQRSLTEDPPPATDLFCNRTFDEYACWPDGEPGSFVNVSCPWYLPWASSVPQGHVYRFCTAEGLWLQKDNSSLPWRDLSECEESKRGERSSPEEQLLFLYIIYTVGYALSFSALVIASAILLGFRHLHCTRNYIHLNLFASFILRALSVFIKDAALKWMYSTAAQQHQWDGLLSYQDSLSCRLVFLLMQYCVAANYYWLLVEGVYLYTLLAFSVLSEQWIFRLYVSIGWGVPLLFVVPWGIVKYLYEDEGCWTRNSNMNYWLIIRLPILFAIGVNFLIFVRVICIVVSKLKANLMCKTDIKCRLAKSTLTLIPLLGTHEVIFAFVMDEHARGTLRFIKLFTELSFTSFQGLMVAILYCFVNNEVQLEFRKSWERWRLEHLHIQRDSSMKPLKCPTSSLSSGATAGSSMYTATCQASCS
Outline: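 CHO-K1 cells stably expressing hGLP1R (2000/well) in DPBS with 0.05% casein and 0.5 mM IBMX were stimulated 30 min at room temperature with graded compound doses; human GLP-1(7-36) served as positive control. cAMP was read by HTRF after 1 h; EC50 came from variable-slope sigmoid fits (purified peptides: 11-point 3-fold, n=2).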

[1] = Turbidity of crude library peptides (absorbance at 600 nm); type: physicochemical; conditions: Physical stability of peptides
Outline: (§1)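 Crude peptides at 267 μM in 50 mM sodium acetate pH 4.0 or 50 mM sodium phosphate pH 7.0, pre-incubated 1-2 h at room temperature, then 4 μM final ThT added. Turbidity read first as A600. ThT fluorescence (ex 450/em 480 nm) read every 10 min for 72 h at 40° C, with 5 min shaking before each read; fibril formation = average emission.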

[2] = Fibril formation of crude library peptides (Thioflavin T); type: physicochemical; parameters: key: average ThT fluorescence emission at 480 nm (ex 450 nm), raw units; conditions: Physical stability of peptides
Outline: as §1

SCTR = SCTR (Homo sapiens, UniProt P47872); experiment: hSCTR potency, cAMP accumulation in CHO-K1 cells stably overexpressing hSCTR; type: cell-based; parameters: alternatively Euroscreen ES-712-AF; FAST-0161L; host or cells: CHO-K1; conditions: cAMP accumulation, CHO-K1 cells overexpressing hSCTR
Chain of SCTR (P47872 23-440): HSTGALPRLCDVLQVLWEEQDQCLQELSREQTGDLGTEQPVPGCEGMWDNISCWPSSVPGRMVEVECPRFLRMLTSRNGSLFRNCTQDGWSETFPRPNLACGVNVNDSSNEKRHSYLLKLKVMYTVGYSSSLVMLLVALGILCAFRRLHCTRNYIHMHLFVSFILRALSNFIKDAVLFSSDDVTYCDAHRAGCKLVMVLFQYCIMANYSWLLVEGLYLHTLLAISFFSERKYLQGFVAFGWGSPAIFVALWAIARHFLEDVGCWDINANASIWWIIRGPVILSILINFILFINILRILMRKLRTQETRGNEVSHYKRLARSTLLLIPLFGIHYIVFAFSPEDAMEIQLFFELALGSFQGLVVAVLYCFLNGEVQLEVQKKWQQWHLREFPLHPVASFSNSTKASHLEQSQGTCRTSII
Outline: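 Cells plated at 2000/well in DPBS with 0.05% casein and 0.5 mM IBMX, stimulated 30 min at room temperature with graded compound doses; human secretin as positive control. cAMP read by TR-FRET after 1 h. Purified peptides tested at 11 3-fold dilutions, n=2; EC50 by variable-slope sigmoid fit.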

[3] = read-out: hGLP1R pEC50 (converted)
[4] = read-out: hSCTR pEC50 (converted)
[5] = read-out: pEC50 hGLPR1 (converted)
[6] = read-out: pEC50 hSCTR (converted)

EC50 (GLP1R; [3]) [nM] | SCTR EC50/GLP1R EC50 ratio (GLP1R) | Turbidity (pH 7) [1] | Fibril formation [2] | EC50 (SCTR; [4]) [nM] | Selectivity (GLP1R) | EC50 (GLP1R; [5]) [nM] | EC50 (SCTR; [6]) [nM] | SMILES
0.126 | 2902 | 0.12 | 1348 | 316 | – | – | – | CC[C@H](C)[C@H](NC(=O)[C@H](Cc1ccccc1)NC(=O)[C@H](CCCNC(=N)N)NC(=O)[C@H](CCC(N)=O)NC(=O)[C@H](CC(C)C)NC(=O)[C@H](C)NC(=O)[C@H](C)NC(=O)CNC(=O)[C@H](CCC(=O)O)NC(=O)[C@H](CC(C)C)NC(=O)[C@H](CC(C)C)NC(=O)[C@H](CCCNC(=N)N)NC(=O)[C@H](CO)NC(=O)C(C)(C)NC(=O)[C@H](CC(=O)O)NC(=O)[C@H](CO)NC(=O)[C@@H](NC(=O)[C@H](Cc1ccccc1)NC(=O)[C@@H](NC(=O)CNC(=O)[C@H](CCC(=O)O)NC(=O)C(C)(C)NC(=O)[C@@H](N)Cc1c[nH]cn1)[C@@H](C)O)[C@@H](C)O)C(=O)N[C@@H](CCC(N)=O)C(=O)N[C@@H](Cc1c[nH]c2ccccc12)C(=O)N[C@@H](CC(C)C)C(=O)N[C@H](C(N)=O)C(C)C [compound 104] (H-H[Aib]EGTFTSD[Aib]SRLLEGAALQRFIQWLV-NH2)
– | – | 0.08 | 12190 | – | 30234 | 0.1 | 3160 | CC(C)C[C@H](NC(=O)[C@H](CCC(=O)O)NC(=O)[C@H](CCCCNC(=O)COCCOCCNC(=O)COCCOCCNC(=O)CC[C@H](NC(=O)CCCCCCCCCCCCCCCCCCC(=O)O)C(=O)O)NC(=O)[C@H](CC(C)C)NC(=O)[C@@H](NC(=O)[C@H](CO)NC(=O)[C@@H](NC(=O)[C@H](CC(=O)O)NC(=O)[C@H](CO)NC(=O)[C@@H](NC(=O)[C@H](Cc1ccccc1)NC(=O)[C@@H](NC(=O)CNC(=O)[C@H](CCC(=O)O)NC(=O)C(C)(C)NC(=O)[C@@H](N)Cc1c[nH]cn1)[C@@H](C)O)[C@@H](C)O)C(C)C)[C@@H](C)O)C(=O)N[C@@H](C)C(=O)N[C@@H](C)C(=O)NC(C)(C)C(=O)N[C@@H](CCC(N)=O)C(=O)N[C@@H](CCCNC(=N)N)C(=O)N[C@@H](Cc1ccccc1)C(=O)N[C@@H](CC(C)C)C(=O)N[C@@H](CCC(=O)O)C(=O)N[C@@H](Cc1c[nH]cn1)C(=O)N[C@@H](CC(C)C)C(=O)N[C@H](C(N)=O)C(C)C [compound 79] (H-H[Aib]EGTFTSDVSTLK([AEEA-AEEA-γGlu-C20 diacid])ELAA[Aib]QRFLEHLV-NH2)
0.00398 | 42442 | 0.08 | 3973 | 158 | – | – | – | CC(C)C[C@H](NC(=O)[C@H](Cc1ccccc1)NC(=O)[C@H](CCCNC(=N)N)NC(=O)[C@H](CCC(N)=O)NC(=O)[C@@H](NC(=O)C(C)(C)NC(=O)[C@H](C)NC(=O)[C@H](CCC(=O)O)NC(=O)[C@H](CCC(=O)O)NC(=O)[C@H](CCCCNC(=O)COCCOCCNC(=O)COCCOCCNC(=O)CC[C@H](NC(=O)CCCCCCCCCCCCCCCCCCC(=O)O)C(=O)O)NC(=O)[C@H](CC(C)C)NC(=O)[C@H](Cc1ccc(O)cc1)NC(=O)[C@H](CO)NC(=O)[C@@H](NC(=O)[C@H](CC(=O)O)NC(=O)[C@H](CO)NC(=O)[C@@H](NC(=O)[C@H](Cc1ccccc1)NC(=O)[C@@H](NC(=O)CNC(=O)[C@H](CCC(=O)O)NC(=O)C(C)(C)NC(=O)[C@@H](N)Cc1c[nH]cn1)[C@@H](C)O)[C@@H](C)O)C(C)C)C(C)C)C(=O)N[C@@H](CCC(=O)O)C(=O)N[C@@H](Cc1c[nH]cn1)C(=O)N[C@@H](CC(C)C)C(=O)N[C@H](C(N)=O)C(C)C [compound 161] (H-H[Aib]EGTFTSDVSYLK([AEEA-AEEA-γGlu-C20 diacid])EEA[Aib]VQRFLEHLV-NH2)
– | – | 0.08 | 11371 | – | 5429 | 0.02 | 126 | CC(C)C[C@H](NC(=O)[C@H](Cc1ccccc1)NC(=O)[C@H](CCCNC(=N)N)NC(=O)[C@H](CCC(N)=O)NC(=O)[C@@H](NC(=O)[C@H](C)NC(=O)[C@H](C)NC(=O)C(C)(C)NC(=O)[C@H](CCC(=O)O)NC(=O)[C@H](CCCCNC(=O)COCCOCCNC(=O)COCCOCCNC(=O)CC[C@H](NC(=O)CCCCCCCCCCCCCCCCCCC(=O)O)C(=O)O)NC(=O)[C@H](CC(C)C)NC(=O)[C@@H](NC(=O)[C@H](CO)NC(=O)[C@@H](NC(=O)[C@H](CC(=O)O)NC(=O)[C@H](CO)NC(=O)[C@@H](NC(=O)[C@H](Cc1ccccc1)NC(=O)[C@@H](NC(=O)CNC(=O)[C@H](CCC(=O)O)NC(=O)C(C)(C)NC(=O)[C@@H](N)Cc1c[nH]cn1)[C@@H](C)O)[C@@H](C)O)C(C)C)C(C)C)[C@@H](C)O)C(=O)N[C@@H](CCC(=O)O)C(=O)N[C@@H](Cc1c[nH]cn1)C(=O)N[C@@H](CC(C)C)C(=O)N[C@H](C(N)=O)C(C)C [compound 49] (H-H[Aib]EGTFTSDVSVLK([AEEA-AEEA-γGlu-C20 diacid])E[Aib]AATQRFLEHLV-NH2)
0.1 | 14710 | 0.12 | 4216 | 1580 | – | – | – | CC[C@H](C)[C@H](NC(=O)[C@H](Cc1ccccc1)NC(=O)[C@H](CCCNC(=N)N)NC(=O)[C@H](CCC(N)=O)NC(=O)[C@H](CC(C)C)NC(=O)[C@H](C)NC(=O)[C@H](C)NC(=O)CNC(=O)[C@H](CCC(=O)O)NC(=O)[C@H](CC(C)C)NC(=O)[C@H](CC(C)C)NC(=O)CNC(=O)[C@H](CO)NC(=O)C(C)(C)NC(=O)[C@H](CC(=O)O)NC(=O)[C@H](CO)NC(=O)[C@@H](NC(=O)[C@H](Cc1ccccc1)NC(=O)[C@@H](NC(=O)CNC(=O)[C@H](CCC(=O)O)NC(=O)C(C)(C)NC(=O)[C@@H](N)Cc1c[nH]cn1)[C@@H](C)O)[C@@H](C)O)C(=O)N[C@@H](CCC(N)=O)C(=O)N[C@@H](Cc1c[nH]c2ccccc12)C(=O)N[C@@H](CC(C)C)C(=O)N[C@H](C(N)=O)C(C)C [compound 105] (H-H[Aib]EGTFTSD[Aib]SGLLEGAALQRFIQWLV-NH2)
6.31 | 804 | 0.08 | 3560 | 5010 | – | – | – | CC[C@H](C)[C@H](NC(=O)[C@H](Cc1ccccc1)NC(=O)[C@H](CCCNC(=N)N)NC(=O)[C@H](CCC(N)=O)NC(=O)[C@H](CC(C)C)NC(=O)[C@H](C)NC(=O)[C@H](C)NC(=O)CNC(=O)[C@H](CCC(=O)O)NC(=O)[C@H](CC(C)C)NC(=O)[C@H](CC(C)C)NC(=O)[C@H](CCC(=O)O)NC(=O)[C@H](CO)NC(=O)[C@@H]1CCCN1C(=O)[C@H](CC(=O)O)NC(=O)[C@H](CO)NC(=O)[C@@H](NC(=O)[C@H](Cc1ccccc1)NC(=O)[C@@H](NC(=O)CNC(=O)[C@H](CCC(=O)O)NC(=O)C(C)(C)NC(=O)[C@@H](N)Cc1c[nH]cn1)[C@@H](C)O)[C@@H](C)O)C(=O)N[C@@H](CCC(N)=O)C(=O)N[C@@H](Cc1c[nH]c2ccccc12)C(=O)N[C@@H](CC(C)C)C(=O)N[C@H](C(N)=O)C(C)C [compound 122] (H-H[Aib]EGTFTSDPSELLEGAALQRFIQWLV-NH2)
